Publication PMC7188713, “Phase 1 study of napabucasin, a cancer stemness inhibitor, in patients with advanced solid tumors” (Cancer Chemotherapy and Pharmacology, 2020)
Where two headings read alike, the source gives them in different places. Marks after values point to notes of the source that are not given here.

What was measured:
[1] = Plasma and urine pharmacokinetics of napabucasin in patients; format: in vivo, Japanese patients; details: for AUC(0-t) / AUC(0-inf) / Cmax / half-life / Tmax: human, oral; for AUC(0-t) / AUC(0-inf) / Cmax / half-life / Tmax / CL/F, range / CL/F, range (apparent total clearance at steady state): plasma; for AUC(0-inf): read-out: AUC0–∞, range; for Cmax: read-out: Cmax, range; for half-life: read-out: t1/2, range; for Tmax: read-out: tmax, range
Method: Blood samples for PK were obtained on Days 1, 2, 8, and 15 of Cycle 1 and Days 29 and 30 of Cycle 2. On Day 1 of Cycle 1 and Day 29 of Cycle 2, blood samples were collected before the morning dose and at 2, 4, 6, 8, 10, 12, and 24 h after the morning dose of napabucasin; for samples collected 24 h following the morning dose of napabucasin on Day 1 and Day 29, collection occurred before the morning dose was administered on Day 2 and Day 30, respectively. On Days 8 and 15 of Cycle 1, blood samples were taken 168 and 336 h after the morning dose on Day 1. Urine samples were taken on Days 1 and 2 of Cycle 1 and Days 29 and 30 of Cycle 2. Samples were collected immediately after the morning dose on Days 1 and 29 through to immediately before the morning dose the next day. Plasma napabucasin concentration was measured by Frontage Laboratories and CMIC Pharma Science Co., Ltd and urine napabucasin concentration was measured by CMIC Pharma Science Co., Ltd.
(§1) The safety and antitumor activity (intention-to-treat [ITT]) analysis populations included all patients that received at least one dose of napabucasin. The DLT analysis population included all patients that received at least one dose of napabucasin with at least 80% compliance ([number of capsules actually ingested/number of capsules that should have been ingested per dose […]] × 100) during the DLT evaluation period, and those patients who experienced DLT during the evaluation period regardless of compliance. The PK population included all patients that received at least one dose of napabucasin and had plasma napabucasin concentration data for at least one-time point after the first dose of napabucasin.

advanced solid tumors = assay: Antitumor activity (RECIST 1.1 tumor response, PFS, OS, STAT3 SNP genotype); format: in vivo, Japanese patients
Method: (§2) Assessments of antitumor activity were objective tumor response, median progression-free survival (PFS) and median overall survival (OS). Tumor response was evaluated according to RECIST 1.1 [21]. Median PFS was defined as the time from the day of the first dose of napabucasin to the date of progressive disease (PD), if neither was observed, the patient was to be censored at the last assessment of tumor response. Median OS was defined as the time from the first dose of napabucasin to the date of death from any cause. Patients who were still alive at the final observation were to be censored at the date they were last known to be alive. STAT3 single nucleotide polymorphism (SNP) genotyping was carried out using DNA extracted from whole blood samples to assess tumor response, median PFS, and median OS. Immunohistochemistry (IHC), mutation analysis (Oncomine Comprehensive Assay), and microsatellite instability analyses were performed in tumor tissue samples obtained from patients who provided additional consent to assess the relationship between specific biomarkers and the antitumor activity of napabucasin. IHC staining of phosphorylated STAT3 (pSTAT3) was carried out on archived tumor samples which were collected pre-treatment, and de novo lesions during and post-treatment were also collected, according to the protocol of a recent Phase 3 study. Positive pSTAT3 staining was defined as cancer cell nuclear staining ≥ 5% plus a stroma staining score of at least 2. The biomarker testing facility was responsible for IHC staining and storage of tumor samples. If consent to a genetic test was withdrawn, samples and associated analyses were discarded.
as §1

[2] = system: phosphorylated STAT3 (pSTAT3); assay: pSTAT3 IHC staining of tumor samples; format: in vivo, Japanese patients; details: one colorectal cancer patient
Method: as §2

[3] = system: NAD(P)H: quinone oxidoreductase-1; parameters: method as in PMID 31527169; details: results in redox cycling and ROS generation; cited from earlier work
[4] = 240 mg, Cycle 1 (Day 1), Cohort 1 (480 mg/day, 240 mg BID), n = 3
[5] = 240 mg, Cycle 2 (Day 29), Cohort 1 (480 mg/day, 240 mg BID), n = 3
[6] = 480 mg, Cycle 1 (Day 1), Cohort 2 (960 mg/day, 480 mg BID), n = 4
[7] = 480 mg, Cycle 2 (Day 29), Cohort 2 (960 mg/day, 480 mg BID), n = 3
[8] = 720 mg, Cycle 1 (Day 1), Cohort 3 (1440 mg/day, 720 mg BID), n = 7
[9] = 720 mg, Cycle 2 (Day 29), Cohort 3 (1440 mg/day, 720 mg BID), n = 5
[10] = Post-napabucasin: Day 26 from the first dose, treatment ongoing

SMILES: CC(=O)c1cc2c(o1)C(=O)c1ccccc1C2=O [napabucasin]
- AUC(0-t) ([1]; 240 mg, Cycle 1 (Day 1), Cohort 1 (480 mg/day, 240 mg BID), n = 3, read-out: AUC0–12, range): 1370 to 2990 ng·h/mL
- AUC(0-t) ([1]; 240 mg, Cycle 1 (Day 1), Cohort 1 (480 mg/day, 240 mg BID), n = 3, read-out: AUC0–24, range): 2020 to 3800 ng·h/mL
- AUC(0-inf) [1, 4]: 3650 to 4060 ng·h/mL
- Cmax [1, 4]: 194 to 468 ng/mL
- half-life [1, 4]: 5 to 25 h
- Tmax [1, 4]: 4 to 6 h
- AUC(0-t) ([1]; 240 mg, Cycle 2 (Day 29), Cohort 1 (480 mg/day, 240 mg BID), n = 3, read-out: AUC0–12, range): 2190 to 4940 ng·h/mL
- AUC(0-t) ([1]; 240 mg, Cycle 2 (Day 29), Cohort 1 (480 mg/day, 240 mg BID), n = 3, read-out: AUC0–24, range): 2510 to 6180 ng·h/mL
- AUC(0-inf) [1, 5]: 2570 to 6370 ng·h/mL
- Cmax [1, 5]: 472 to 652 ng/mL
- half-life [1, 5]: 4 to 5 h
- Tmax [1, 5]: 4 to 10 h
- AUC(0-t) ([1]; 480 mg, Cycle 1 (Day 1), Cohort 2 (960 mg/day, 480 mg BID), n = 4, read-out: AUC0–12, range): 984 to 4780 ng·h/mL
- AUC(0-t) ([1]; 480 mg, Cycle 1 (Day 1), Cohort 2 (960 mg/day, 480 mg BID), n = 4, read-out: AUC0–24, range): 1200 to 6360 ng·h/mL
- AUC(0-inf) [1, 6]: 1410 to 7360 ng·h/mL
- Cmax [1, 6]: 199 to 719 ng/mL
- half-life [1, 6]: 7 to 8 h
- Tmax [1, 6]: 2 to 6 h
- AUC(0-t) ([1]; 480 mg, Cycle 2 (Day 29), Cohort 2 (960 mg/day, 480 mg BID), n = 3, read-out: AUC0–12, range): 2560 to 2760 ng·h/mL
- AUC(0-t) ([1]; 480 mg, Cycle 2 (Day 29), Cohort 2 (960 mg/day, 480 mg BID), n = 3, read-out: AUC0–24, range): 2750 to 2880 ng·h/mL
- AUC(0-inf) [1, 7]: 2750 to 2880 ng·h/mL
- Cmax [1, 7]: 391 to 477 ng/mL
- half-life [1, 7]: 2 to 3 h
- Tmax [1, 7]: 2 to 10 h
- AUC(0-t) ([1]; 720 mg, Cycle 1 (Day 1), Cohort 3 (1440 mg/day, 720 mg BID), n = 7, read-out: AUC0–12, range): 3440 to 11000 ng·h/mL
- AUC(0-t) ([1]; 720 mg, Cycle 1 (Day 1), Cohort 3 (1440 mg/day, 720 mg BID), n = 7, read-out: AUC0–24, range): 3920 to 14500 ng·h/mL
- AUC(0-inf) [1, 8]: 3870 to 14800 ng·h/mL
- Cmax [1, 8]: 641 to 2070 ng/mL
- half-life [1, 8]: 3 to 12 h
- Tmax [1, 8]: 2 to 6 h
- AUC(0-t) ([1]; 720 mg, Cycle 2 (Day 29), Cohort 3 (1440 mg/day, 720 mg BID), n = 5, read-out: AUC0–12, range): 3650 to 15400 ng·h/mL
- AUC(0-t) ([1]; 720 mg, Cycle 2 (Day 29), Cohort 3 (1440 mg/day, 720 mg BID), n = 5, read-out: AUC0–24, range): 4480 to 20200 ng·h/mL
- AUC(0-inf) [1, 9]: 4740 to 123000 ng·h/mL
- Cmax [1, 9]: 596 to 1930 ng/mL
- half-life [1, 9]: 5 to 192 h
- Tmax [1, 9]: 2 to 4 h
- Difference in Cmax and AUC0–12 between doses ([1]; plasma, 480, 960, 1440 mg/day): no clear difference between doses
- CL/F, range ([1]; Cycle 1 (Day 1), Cohort 1 (480 mg/day, 240 mg BID), n = 3): 59 to 66 L/h
- CL/F, range ([1]; Cycle 1 (Day 1), Cohort 2 (960 mg/day, 480 mg BID), n = 4): 65 to 341 L/h
- CL/F, range ([1]; Cycle 1 (Day 1), Cohort 3 (1440 mg/day, 720 mg BID), n = 7): 49 to 186 L/h
- CL/F, range (apparent total clearance at steady state) ([1]; Cycle 2 (Day 29), Cohort 1 (480 mg/day, 240 mg BID), n = 3): 49–109^a L/h
- CL/F, range (apparent total clearance at steady state) ([1]; Cycle 2 (Day 29), Cohort 2 (960 mg/day, 480 mg BID), n = 3): 174–188^a L/h
- CL/F, range (apparent total clearance at steady state) ([1]; Cycle 2 (Day 29), Cohort 3 (1440 mg/day, 720 mg BID), n = 5): 47–197^a L/h
- Accumulation in plasma ([1]; repeated BID dosing, Cycle 1 to Cycle 2): no abnormal accumulation was observed
- Difference in urinary PK between cohorts ([1]; urine, 480, 960, 1440 mg/day): no clear differences were observed between cohorts
- Median OS (advanced solid tumors; Cohort 1 (480 mg/day)): 8.28 months
- Median PFS (advanced solid tumors; Cohort 1 (480 mg/day)): 1.87 months
- Median OS (advanced solid tumors; Cohort 2 (960 mg/day)): 5.03 months
- Median PFS (advanced solid tumors; Cohort 2 (960 mg/day)): 1.76 months
- Median OS (advanced solid tumors; Cohort 3 (1440 mg/day)): 5.68 months
- Median PFS (advanced solid tumors; Cohort 3 (1440 mg/day)): 1.45 months
- Antitumor activity by STAT3 SNP genotype (advanced solid tumors; DNA from whole blood, G/G, C/C, C/G genotypes): no difference in antitumor activity between G/G, C/C, and C/G genotypes
- Median OS (advanced solid tumors; ITT population): 5.83 months
- Median PFS (advanced solid tumors; ITT population): 1.71 months
- Patients with progressive disease (PD) (advanced solid tumors; RECIST 1.1, 14 patients): 12 patients
- Patients with stable disease (SD) as best overall tumor response (advanced solid tumors; RECIST 1.1, 14 patients, both colorectal cancer): two
- Duration of SD (advanced solid tumors; one patient in Cohort 1 (480 mg/day)): 56 days
- Duration of SD (advanced solid tumors; one patient in Cohort 3 (1440 mg/day)): 82 days
- Proportion of patients who achieved SD (advanced solid tumors; this study): 14%
- pSTAT3 status ([2]; post-napabucasin (during treatment), positive = nuclear staining ≥ 5% plus stroma score at least 2): positive
- % Nuclear tumor positive (pSTAT3 IHC) [2, 10]: 10%
- H-score (pSTAT3 IHC) [2, 10]: 15
- Microenvironment % positive (pSTAT3 IHC) [2, 10]: 50%
- Microenvironment intensity (pSTAT3 IHC) [2, 10]: 2
- Percent nuclear tumor staining 0 (pSTAT3 IHC) [2, 10]: 90%
- Percent nuclear tumor staining 1 + (pSTAT3 IHC) [2, 10]: 5%
- Percent nuclear tumor staining 2 + (pSTAT3 IHC) [2, 10]: 5%
- Percent nuclear tumor staining 3 + (pSTAT3 IHC) [2, 10]: 0%
- Bioactivation [3]: bioactivated by NAD(P)H: quinone oxidoreductase-1
